System: Zucker (fa/fa) obese rats
Assay: Hepatic fibrosis: H&E and Mason trichrome liver histology in Zucker rat NASH model
Format: in vivo
Conditions: 100 mg/kg APL p.o. b.i.d., 78 days
From the text: Zucker (fa/fa) obese rats and Zucker (Fa/fa) lean rats (7-week old male animals obtained from Charles Rivers Laboratories, Wilmington, MA, USA) were maintained in individual cages (1 rat per cage to encourage sedentary activity) and had free access to standard rodent chow (Cat #5053 obtained from Labdiet, Saint Louis, MO) and water for (filtered and packed using a Hydrapak system) for 7 days until the start of the experiment. Zucker (fa/fa) obese rats were randomly assigned to two groups: 1) vehicle p.o.b.i.d. (oral administration, twice a day) for 78 days; and 2) 100 milligram per kilogram (mg/kg) body weight APL (p.o.b.i.d.) for 78 days. Zucker (Fa/fa) lean rats served as control. The APL dosage was 100 mg/kg/day. Animals were fed ad libitum. The animals were humanely euthanized, and the livers were removed for histological analysis. Liver samples in formalin were allowed to fix for 48 hours, and processed into FFPE blocks after fixations. Slides were stained with hematoxylin and eosin (H&E) and Mason trichrome staining.

Compound: NCCCNCCCC[C@H](N)C(=O)O [APL, (S)-2-amino-6-((3-aminopropyl)amino)hexanoic acid]
- liver morphology, H&E (FIG. 8A): preserve the normal morphology of the liver
- liver collagen fibers, Mason trichrome blue staining (FIG. 8B/8C) (vs multiple collagen fibers with vehicle): minimum blue staining

Source: patent US12465582B2, “(S)-2-amino-6-((3-aminopropyl)amino)hexanoic acid (APL) for use in the treatment of non-alcoholic steatohepatitis (NASH), liver inflammation, hepatocellular ballooning, liver fibrosis and steatosis” (Temple University—Of The Commonwealth System Of Higher …, priority 2020, dated 2025)
